# Tests used:
# [1] = molecular target: T1, Pregnane X Receptor (PXR) (Homo sapiens, UniProt O75469); conditions: reported in background section; cited from earlier work
# T1 sequence (O75469 1-434): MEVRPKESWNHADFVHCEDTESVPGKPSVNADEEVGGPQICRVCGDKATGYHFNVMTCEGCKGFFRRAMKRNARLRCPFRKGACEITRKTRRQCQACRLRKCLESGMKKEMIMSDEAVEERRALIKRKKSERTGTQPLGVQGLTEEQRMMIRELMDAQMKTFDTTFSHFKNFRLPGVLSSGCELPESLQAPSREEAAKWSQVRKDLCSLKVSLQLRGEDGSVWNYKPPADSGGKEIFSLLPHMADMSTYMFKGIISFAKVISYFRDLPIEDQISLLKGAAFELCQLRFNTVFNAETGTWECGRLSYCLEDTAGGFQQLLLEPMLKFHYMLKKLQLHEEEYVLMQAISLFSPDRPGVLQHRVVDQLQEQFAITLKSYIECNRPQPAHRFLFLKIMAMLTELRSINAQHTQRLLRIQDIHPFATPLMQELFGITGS
# PPARδ receptor = molecular target: T2, PPARδ receptor (Homo sapiens, UniProt Q03181); assay: Binding and cotransfection studies, PPARδ ("binding assay")
# T2 sequence (Q03181 1-441): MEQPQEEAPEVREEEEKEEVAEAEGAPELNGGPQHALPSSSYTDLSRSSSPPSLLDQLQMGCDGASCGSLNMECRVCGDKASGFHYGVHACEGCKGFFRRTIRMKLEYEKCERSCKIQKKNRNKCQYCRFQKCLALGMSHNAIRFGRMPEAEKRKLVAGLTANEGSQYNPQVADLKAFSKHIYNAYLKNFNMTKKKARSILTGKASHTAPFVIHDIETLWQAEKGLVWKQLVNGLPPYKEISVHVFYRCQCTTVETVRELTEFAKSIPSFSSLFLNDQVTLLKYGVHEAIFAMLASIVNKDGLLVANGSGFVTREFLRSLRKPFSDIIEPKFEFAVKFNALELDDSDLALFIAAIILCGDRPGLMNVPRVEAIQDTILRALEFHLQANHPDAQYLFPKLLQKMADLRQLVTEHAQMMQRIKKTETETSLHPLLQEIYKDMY
# Procedure: (§1) DNA-dependent binding (ABCD binding) is carried out using SPA technology with PPAR receptors. Tritium-labeled PPARCX agonists are used as radioligands for generating displacement curves and IC50 values with compounds of the invention. Cotransfection assays are carried out in CV-1 cells. The reporter plasmid contains an acylCoA oxidase (AOX) PPRE and TK promoter upstream of the luciferase reporter cDNA. Appropriate PPARs are constitutively expressed using plasmids containing the CMV promoter. For PPARα, interference by endogenous PPARγ in CV-1 cells is an issue. In order to eliminate such interference, a GAL4 chimeric system is used in which the DNA binding domain of the transfected PPAR is replaced by that of GAL4, and the GAL4 response element is utilized in place of the AOX PPRE. Cotransfection efficacy is determined relative to PPARα agonist reference molecules. Efficacies are determined by computer fit to a concentration-response curve, or in some cases at a single high concentration of agonist (10 μM).
# (§2) These studies are carried out to evaluate the ability of compounds of the invention to bind to and/or activate various nuclear transcription factors, particularly huPPARα (“hu” indicates “human”). These studies provide in vitro data concerning efficacy and selectivity of compounds of the invention. Furthermore, binding and cotransfection data for compounds of the invention are compared with corresponding data for marketed compounds that act on huPPARα.
# PPARα receptor = molecular target: T3, PPARα receptor (Homo sapiens, UniProt Q07869); assay: Binding and cotransfection studies, PPARα ("binding assay")
# T3 sequence (Q07869 174-468 limits assumed): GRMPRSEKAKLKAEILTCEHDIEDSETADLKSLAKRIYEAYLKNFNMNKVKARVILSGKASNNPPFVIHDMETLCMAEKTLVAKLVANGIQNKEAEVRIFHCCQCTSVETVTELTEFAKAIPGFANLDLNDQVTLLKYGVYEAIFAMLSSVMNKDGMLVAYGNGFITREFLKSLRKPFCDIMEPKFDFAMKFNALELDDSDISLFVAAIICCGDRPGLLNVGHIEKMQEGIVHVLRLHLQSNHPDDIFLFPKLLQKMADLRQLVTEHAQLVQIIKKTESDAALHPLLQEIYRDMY
# Procedure: as §1, §2
# [2] = molecular target: T4, PXR (human SXR ligand binding domain) (Homo sapiens, UniProt O75469); assay: PXR Assay: GAL4PXR/GAL4 response element reporter assay in HuH7 cells; assay type: cell-based; conditions: 24 h, versus maximum stimulation with rifampicin
# T4 construct: expressed in transfected cells; host or cells: HuH7 (human liver) cells
# T4 sequence (O75469 146-433 limits assumed): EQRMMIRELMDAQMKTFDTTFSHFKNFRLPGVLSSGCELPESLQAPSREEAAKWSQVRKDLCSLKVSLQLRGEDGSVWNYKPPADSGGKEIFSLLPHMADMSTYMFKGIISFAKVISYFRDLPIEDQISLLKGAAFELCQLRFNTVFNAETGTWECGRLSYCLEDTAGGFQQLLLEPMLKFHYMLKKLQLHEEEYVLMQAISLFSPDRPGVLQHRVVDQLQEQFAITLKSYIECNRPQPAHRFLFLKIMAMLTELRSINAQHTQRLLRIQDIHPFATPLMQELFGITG
# Procedure: PXR Assay: GAL4PXR/GAL4 Response Element Reporter Assays in HuH7 Cells:
# Human liver HuH7 cells are co-transfected using Fugene. The reporter plasmid, containing five Gal4 binding site and major late promoter of adenovirus upstream of the luciferase reporter cDNA, is transfected with a plasmid constitutively expressing a hybrid receptor consistent of GAL4 DNA binding domain and human SXR ligand binding domain using viral SV40 early promoter. Cells are transfected with 10 μg of total DNA/10^6 cells in T225 cm^2 flasks in DMEM:F12 (3:1) media with 10% charcoal-stripped Fetal Bovine Serum (FBS). After an overnight incubation, transfected cells are trypsinized, plated in 96 well dishes in DMEM:F12 (3:1) media with 10% charcoal-stripped FBS, incubated for 4 h and then exposed to 0.8 nM to 50 μM of test compounds in half log dilutions. After 24 h of incubations with compounds, cells are lysed and luciferase activity is determined Data is fit to a 4 parameter-fit logistics to determine EC50 values. The % efficacy is determined versus maximum stimulation obtained with rifampicin.
SMILES,EC50 (PPARδ receptor),EC50 (PPARα receptor),PXR (% efficacy versus max stimulation with Rifampicin) [2],PXR activation [1]
Cc1c(C)c2c(c(C)c1O)CCC(C)(COc1ccc(CC3SC(=O)NC3=O)cc1)O2 (stereo not shown) [troglitazone],,,,activated the Pregnane X Receptor (PXR)
"COCCn1c(COc2ccc(OC(C)(C)C(=O)O)c(C)c2)nn(-c2ccc(C(F)(F)F)cc2)c1=O [Example 2, 2-{4-[4-(2-Methoxy-ethyl)-5-oxo-1-(4-trifluoromethyl-phenyl)-4,5-dihydro-1H-[1,2,4]triazol-3-ylmethoxy]-2-methyl-phenoxy}-2-methyl-propionic acid]",297 nM,256 nM,52.8%,

# Continued by falling EC50 (PPARδ receptor), values first:
EC50 (PPARδ receptor),EC50 (PPARα receptor),PXR (% efficacy versus max stimulation with Rifampicin) [2],SMILES,PXR activation [1]
63.4 nM,309 nM,32.4%,"Cc1cc(OCc2nn(-c3ccc(C(F)(F)F)cc3)c(=O)n2C(C)C)ccc1OC(C)(C)C(=O)O [Example 1, 2-{4-[4-Isopropyl-5-oxo-1-(4-trifluoromethyl-phenyl)-4,5-dihydro-1H-[1,2,4]triazol-3-ylmethoxy]-2-methyl-phenoxy}-2-methyl-propionic acid]",
46.4 nM,872 nM,13.5%,"CC(C)(Oc1ccc(OC(CCCC(F)(F)F)c2nn(-c3ccc(C(F)(F)F)cc3)c(=O)n2-c2c(F)cccc2F)cc1)C(=O)O (racemic) [Example 57, 2-(4-{1-[4-(2,6-Difluoro-phenyl)-5-oxo-1-(4-trifluoromethyl-phenyl)-4,5-dihydro-1H-[1,2,4]triazol-3-yl]-5,5,5-trifluoro-pentyloxy}-phenoxy)-2-methyl-propionic acid]",
14 nM,19.5 nM,57.8%,Cc1cc(OCc2nn(-c3ccc(C(F)(F)F)cc3)c(=O)n2-c2ccccc2F)ccc1OC(C)(C)C(=O)O [Example 13],
